Reference: the supplement of paper PMC10331698
± gives the standard deviation of the averaged measurements.

Legend:
Experiment in all cases: level (log10 ratio to DMSO vehicle control); higher = higher biomarker level / cell amount than vehicle control
Settings in all cases: in DMSO
Perfluorooctanamide = compound: NC(=O)C(F)(F)C(F)(F)C(F)(F)C(F)(F)C(F)(F)C(F)(F)C(F)(F)F [Perfluorooctanamide]
Description: (§1)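 BioMAP Diversity Plus panel of 12 human primary cell co-culture systems (3C, 4H, LPS, SAg, BT, BF4T, BE3C, CASM3C, HDF3CGF, KF3CT, MyoF, Mphg). Compounds were added 1 h before stimulation and left for 24 h (MyoF 48 h; BT 72 h for soluble read-outs or 6 d for IgG). Biomarkers were read by ELISA, cytotoxicity by SRB, PBMC viability and proliferation by Alamar Blue. Each well value was divided by the mean of 8 DMSO control wells on the same plate and log10 transformed; duplicate blinded samples were tested at 4 concentrations.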

[1] = compound: CNS(=O)(=O)C(F)(F)C(F)(F)C(F)(F)C(F)(F)C(F)(F)C(F)(F)C(F)(F)C(F)(F)F [N-Methylperfluorooctanesulfonamide]
Description: as §1

1H,1H-Heptafluorobutanol = compound: OCC(F)(F)C(F)(F)C(F)(F)F [1H,1H-Heptafluorobutanol]
Description: as §1

[2] = compound: FC(F)(F)C(F)(F)C(F)(F)C(F)(F)C(F)(F)C(F)(F)C(F)(F)CCI [1-Iodo-1H,1H,2H,2H-perfluorononane]
Description: as §1

[3] = compound: O=P(O)(O)CCC(F)(F)C(F)(F)C(F)(F)C(F)(F)C(F)(F)C(F)(F)C(F)(F)C(F)(F)F [((Perfluorooctyl)ethyl)phosphonic acid]
Description: as §1

Hexafluoroglutaric acid = compound: O=C(O)C(F)(F)C(F)(F)C(F)(F)C(=O)O [Hexafluoroglutaric acid]
Description: as §1

[4] = compound: C=CC(=O)OCCC(F)(F)C(F)(F)C(F)(F)C(F)(F)F [2-(Perfluorobutyl)ethyl acrylate]
Description: as §1

Row | Test System | level (log10) (Perfluorooctanamide; 6700 nM) | level (log10) (Perfluorooctanamide; 20000 nM) | level (log10) (Perfluorooctanamide; 60000 nM) | level (log10) ([1]; 6700 nM) | level (log10) ([1]; 20000 nM) | level (log10) ([1]; 60000 nM) | level (log10) (1H,1H-Heptafluorobutanol; 6700 nM) | level (log10) (1H,1H-Heptafluorobutanol; 20000 nM) | level (log10) (1H,1H-Heptafluorobutanol; 60000 nM) | level (log10) ([2]; 6700 nM) | level (log10) ([2]; 20000 nM) | level (log10) ([3]; 6700 nM) | level (log10) ([3]; 20000 nM) | level (log10) ([3]; 60000 nM) | level (log10) (Hexafluoroglutaric acid; 6700 nM) | level (log10) (Hexafluoroglutaric acid; 20000 nM) | level (log10) (Hexafluoroglutaric acid; 60000 nM) | level (log10) ([4]; 6700 nM) | level (log10) ([4]; 20000 nM) | level (log10) ([4]; 60000 nM)
1 | 3C:Proliferation | 0.0165 ± 0.0021 | 0 ± 0.014 | -0.081 ± 0.0085 | -0.024 ± 0.02 | -0.125 ± 0.041 | -0.338 ± 0.16 | 0.0075 ± 0.005 | 0.02 ± 0.025 | -0.0595 ± 0.005 | -0.019 ± 0.0085 | -0.027 ± 0.0057 | -0.0505 ± 0.019 | -0.172 ± 0.071 | -0.481 ± 0.18 | -0.0055 ± 0.0064 | -0.009 ± 0.068 | -0.0155 ± 0.054 | -0.0445 ± 0.049 | -0.088 ± 0.028 | -0.304 ± 0.07
2 | SAg:SRB | 0.002 ± 0.0071 | -0.0005 ± 0.0064 | -0.009 ± 0.0014 | -0.0095 ± 0.022 | -0.021 ± 0.02 | -0.0685 ± 0.036 | -0.0055 ± 0.011 | 0.0045 ± 0.0035 | 0.004 ± 0.0057 | 0.0175 ± 0.005 | 0.031 ± 0.017 | -0.01 ± 0.021 | -0.042 ± 0.034 | -0.125 ± 0.044 | -0.0055 ± 0.00071 | -0.0105 ± 0.016 | -0.0035 ± 0.016 | 0.009 ± 0.0071 | 0.0115 ± 0.0092 | -0.0175 ± 0.028
3 | BE3C:EGFR | 0.012 ± 0.011 | -0.002 ± 0.0085 | 0.035 ± 0.016 | 0.001 ± 0.0057 | -0.0005 ± 0.0064 | -0.0305 ± 0.026 | 0.009 ± 0.014 | 0.0135 ± 0.022 | 0.016 ± 0.027 | 0.005 ± 0.014 | -0.008 ± 0.02 | -0.025 ± 0.014 | -0.0355 ± 0.025 | -0.0345 ± 0.033 | -0.0055 ± 0.0035 | -0.0175 ± 0.005 | 0.0025 ± 0.012 | -0.003 | -0.0065 ± 0.00071 | -0.014 ± 0.023
4 | LPS:M-CSF | -0.0005 ± 0.022 | -0.0205 ± 0.013 | -0.067 ± 0.0085 | -0.038 ± 0.018 | -0.0125 ± 0.011 | -0.017 ± 0.013 | 0.011 ± 0.0071 | -0.007 ± 0.055 | 0.006 ± 0.016 | -0.003 ± 0.028 | -0.0015 ± 0.093 | -0.0385 ± 0.018 | -0.052 ± 0.037 | -0.183 ± 0.072 | 0.024 ± 0.047 | -0.019 ± 0.028 | -0.034 ± 0.051 | -0.0115 ± 0.0021 | -0.0085 ± 0.011 | -0.052 ± 0.085
